From patent US20200255714A1, “HYDROFLUOROEPOXIDE CONTAINING COMPOSITIONS AND METHODS FOR USING SAME” (3M INNOVATIVE PROPERTIES COMPANY, priority 2017, published 2020)

Tests used:
Type in all cases: physicochemical
[1] = Chemical stability with absorbents at 65° C. (GC-FID); conditions: 16 hours, initial starting material 99.6
Procedure: The chemical stability was evaluated by charging a weighed amount of Preparatory Example PE1 into glass vials and then adding a weighed amount of absorbent. The samples were stirred with heating at 65° C. for 16 hours and then analyzed by GC-FID to determine whether any breakdown products were formed and whether the level of purity changed.

[2] = Thermal stability under air sparging at elevated temperature (GC analysis); conditions: 72 hour stir at 215° C.-220° C., sparging by air 0.4 L/min
Procedure: To a 3-neck 250 mL round bottom flask equipped with a water-cooled condenser, temperature probe, magnetic stir bar, and a ⅛ inch FEP tube connected to 10 micron steel frit was charged 2,3-bis(3,3,4,4,5,5,5-heptafluoro-2,2-bis(trifluoromethyl)pentyl) oxirane (70.4 g, 99 mmol). Sparging by air through the 10 micron steel frit at a rate of 0.4 L/min commenced and the internal temperature was slowly raised to 220° C. with stirring. After a 72 hour stir with the temperature held between 215° C.-220° C., the material was allowed to cool to room temperature.

[3] = Kinematic viscosity by Ubbelohde capillary viscometer
Procedure: Kinematic Viscosity was measured using glass SCHOTT Ubbelohde capillary viscometers (Xylem, Inc., Germany). The viscometers were timed using a SCHOTT AVS 350 viscosity timer. For a temperature of 10° C., a Lawler temperature control bath was used (Lawler Manufacturing Corp., Edison, N.J., US). The viscometer measurement stand and glass viscometer were immersed in a temperature-controlled liquid bath filled with NOVEC 7500 (3M Company, Saint Paul, Minn., US) as the bath fluid. The Lawler temperature bath was fitted with a copper tubing coil for liquid nitrogen cooling with fine temperature control provided by the bath's electronic temperature control heater. The fluid was mechanically stirred to provide uniform temperature in the bath. The bath controlled temperature to within ±0.1° C., as measured by the built-in resistance temperature detector (RTD) temperature sensor. The sample liquid was added to the viscometer between the two fill lines etched on the viscometer. The AVS-350 automatically pumped the sample fluid above the upper timing mark, then released the fluid and measured the efflux times between the upper and lower timing marks. The fluid meniscus was detected by optical sensors as it passed each timing mark. The sample was drawn up and measured repeatedly, averaging multiple measurements. The glass viscometers were calibrated using Canon certified kinematic viscosity standard fluids to obtain a calibration constant (centistokes per second) for each viscometer. The measured kinematic viscosity (centistokes), was calculated as the average efflux time (seconds) times the constant (centistokes/second) for the viscometer used.

[4] = Vapor pressure by stirred-flask ebuilliometer method (ASTM E 1719-97)
Procedure: Vapor Pressure was measured using the stirred-flask ebuilliometer method described in ASTM E 1719-97 “Vapor Pressure Measurement by Ebuilliometry.” This method is also referred to as “Dynamic Reflux.” The method uses a 50-mL glass round-bottom flask. Vacuum was measured and controlled using a J-KEM vacuum controller (J-KEM Scientific, Saint Louis, Mo., US). The pressure transducer was calibrated on the day of measurement by comparison with full vacuum and with an electronic barometer. The procedure was to begin slowly heating the material, then vacuum was applied until boiling occurred and a steady drop wise reflux rate was established. Pot temperature and pressure reading were recorded, then the vacuum controller was set for a higher absolute pressure and the material was heated further until a new reflux point was established. The pressure level was raised in increments until the vapor pressure curve was obtained up to the atmospheric boiling point. The boiling point of PE1 at 760 mmHg was 238.3° C.

FC(F)(F)C(F)(F)C(F)(F)C(CC1OC1CC(C(F)(F)F)(C(F)(F)F)C(F)(F)C(F)(F)C(F)(F)F)(C(F)(F)F)C(F)(F)F (stereo not shown) [PE1, 2,3-bis(3,3,4,4,5,5,5-heptafluoro-2,2-bis(trifluoromethyl)pentyl)oxirane]
GC-FID purity (%) ([1]; 4 Å molecular sieves): 99.6% | GC-FID purity (%) ([1]; Activated carbon): 98.4% | GC-FID purity (%) ([1]; Basic alumina): 99.7% | GC-FID purity (%) ([1]; Potassium carbonate): 99.6% | GC-FID purity (%) ([1]; Silica gel): 99.6% | content of starting material in final mixture (GC analysis) [2]: approximately 99.4% | decomposition (GC analysis) [2]: no decomposition | Kinematic Viscosity ([3]; 10.0 ° C.): 146.42 cSt | Kinematic Viscosity ([3]; 25.0 ° C.): 36.22 cSt | Kinematic Viscosity ([3]; 30.0 ° C.): 25.87 cSt | Kinematic Viscosity ([3]; 40.0 ° C.): 14.49 cSt | Vapor pressure ([4]; 20 ° C.): 0.026 mmHg | Vapor pressure ([4]; 55 ° C.): 0.35 mmHg | Vapor pressure ([4]; 78.6 ° C.): 1.5 mmHg | Vapor pressure ([4]; 170.7 ° C.): 96.6 mmHg | Vapor pressure ([4]; 204.3 ° C.): 296.9 mmHg | Vapor pressure ([4]; 214.7 ° C.): 397.1 mmHg | Vapor pressure ([4]; 237.7 ° C.): 731.3 mmHg | boiling point ([4]; at 760 mmHg): 238.3 °C
